Measurements reported in ChEMBL document CHEMBL3507680, “University of Dundee, Gates Library screen for HepG2 cell viability”.

Assay: Human HepG2 cell viability assay in 384 well format
Format: toxicity, cell-based
Parameters: dose 125 nL, time 70.5 hour; cytotoxicity at 70.5 h: concentration not given beside the values
Settings: HepG2 cells, read-out: Inhibition

SMILES | cytotoxicity at 70.5 h [%]
OC1(CN2CCC(Oc3cccc(C(F)(F)F)c3)CC2)CNCCOC1 (stereo not given) | -15.4
Cc1cc(CN2CCCC2)cc(Oc2ccc(C(F)(F)F)cn2)c1 | -0.531
NC(=O)CCC(=O)N1CCc2[nH]nc(-c3ccc4c(c3)OCO4)c2C1 | -5.52
O=C(Nc1ccccc1OCCc1ccccn1)N1CCOCC1 | -13.5
COc1ccc(F)cc1C(=O)N1CC(c2ccncc2)C1 | -10
CCCc1nc(C)cc(N2CCC3(CCC(=O)N(CCCO)C3)CC2)n1 | -7.61
COc1ccc2c(c1)C(C(=O)NCCN1CCOC1=O)CC(=O)N2 (stereo not given) | -4.48
COC(=O)[C@H]1C[C@@H](O)CCN1S(=O)(=O)c1c(C)cc(OC)c(C)c1C | 27
CN1CC[C@H]2CN(C(=O)c3csc(Cc4ccccc4)n3)C[C@H]21 | -5.61
CCNC(=O)[C@@H]1C[C@@H](NC(=O)c2cc(C)on2)CN1Cc1ccccn1 | 24.8
Cc1ccccc1SC1CCN(C(=O)CCCS(N)(=O)=O)CC1 | -5.95
Cc1nc(C(=O)N[C@H]2COC[C@@H]2N2CCCCC2)cs1 | 17.8
CCN1CCN(c2ncnc3c2CCN(C(=O)C2CC2)C3)CC1 | 26.2
CC(NC(=O)COc1ccc(Cl)cc1Cl)c1nncn1C(C)C (stereo not given) | -3.07
N#Cc1c(N)nc2c(c1-c1c[nH]nc1C1CCCCC1)CC(N)CC2 (stereo not given) | 22.4
Cc1ccncc1C(=O)N1CC[C@@]2(O)CCN(C3CCCCC3)C[C@H]2C1 | -3.63
Cc1ccccc1C(C(=O)N(C)CCc1cnn(C)c1)N(C)C (stereo not given) | -0.295
CCN1CCCC1CN(Cc1ccon1)CC1CCN(CCOC)CC1 (stereo not given) | -9.79
c1cc(CN2CCC(c3nnc4n3CCCCC4)CC2)c2nonc2c1 | 12.2
Cc1cc(CNC(=O)C2CC(=O)N(CCN(C)C)C2)cc(C)n1 (stereo not given) | 27.5
COc1c(F)ccc(C(=O)N2CC[C@H](CO)[C@@H](O)C2)c1F | -3.48
CC(C)OC(C)c1nnc(SCC(=O)O)n1-c1ccc(F)cc1F (stereo not given) | -6.19

SMILES | cytotoxicity at 70.5 h [%]
O=C1CCC2(CCCN(C(=O)c3ccoc3)C2)CN1CCc1c[nH]cn1 (stereo not given) | -4.81
CN(C)C[C@H]1C[C@H](CO)CN(C(=O)c2cc(S(N)(=O)=O)ccc2F)C1 | -3.55
Cc1nc2c(c(=O)n1C)CN(C(=O)C1CCN(C(=O)C3CCC3)CC1)C2 | -1.69
Cc1ncsc1CCC(=O)N1CCn2cccc2C1c1cccnc1 (stereo not given) | -3.49
O=C(NCc1nnc2n1CCCC2)c1cn(-c2ccccc2)nn1 | -4.64
CCc1cc(N[C@@H]2C[C@H]3CC[C@@H]2C3)n2nccc2n1 | -6.76
CCc1c(C)sc2ncnc(N3CC[C@@H](N4CCOCC4)[C@H](O)C3)c12 | -4.12
COCCC1CCCCN1Cc1nc(C2CC2)no1 (stereo not given) | -9.77
O=C(CCCOCc1ccccc1)N1CCCC(c2ncc[nH]2)C1 (stereo not given) | -22.8
CCCSCC(=O)N1CCN(c2ccc(C)cc2)CC1C (stereo not given) | -14.9
COC[C@]1(O)CCN(Cc2cnc(N3CCOCC3)nc2)CC1(C)C | -14.6
Fc1ccccc1Cc1noc(CN2CCC(N3CCSCC3)CC2)n1 | -3.88
Fc1ccc(N2CCN(CCCc3cn[nH]c3)CC2)cc1 | 12
COc1ccnc(CN2CC(=O)N(c3ccc(C)cc3)CC2C)c1OC (stereo not given) | 16.8
Cc1ccc2cc(C3(O)CCN(C(=O)[C@@H]4CCCCN4)CC3)ccc2n1 | -2.74
CCc1[nH]c2ccc(CNC(=O)c3cnc(N)nc3C)cc2c1C | -3.2
CN(C)C(C(=O)N1CCCN(C(=O)C2CCC2)CC1)c1ccccc1F (stereo not given) | -9.38
CCCOCC1CCN(C(=O)Cn2cccc(C(F)(F)F)c2=O)C1 (stereo not given) | 3.49
CC(C)(C)CC(=O)N1CCC(n2cc(C3(O)CCCC3)nn2)CC1 | -7.65
CCOCc1nc(-c2cccc(OC)c2OC)n(C2CCN(C)CC2)n1 | -1.78
CSc1ccccc1-n1ccnc1-c1cn(C2CCNCC2)nn1 | 2.69
COCCCC1CCCN(Cc2c(C)ccc3ncccc23)C1 (stereo not given) | 6.57

SMILES | cytotoxicity at 70.5 h [%]
CN1CCCC1CCn1ccnc1-c1ccc2ccccc2n1 (stereo not given) | 1.35
Cc1nc(C2CCNCC2)cc(N(C)CCc2cn[nH]c2)n1 | -3.08
CC(C1CCN(Cc2c(Cl)ccc(O)c2Cl)CC1)N1CCN(C)CC1 (stereo not given) | -4.03
CNc1nc(C(=O)N2CCCC(CO)(CCCOC)C2)cs1 (stereo not given) | -4.71
Cc1nc2c(c(N3CCC(CN4CCCC4=O)CC3)n1)CCNCC2 | -5.86
CN(Cc1ccccc1)c1ncccc1CNC1CCCC1 | -1.34
CCC1(O)CCCN(c2nc(-c3ccccn3)nc3c2c(C)nn3C)C1 (stereo not given) | -2.92
CC(C)c1cc(N2CCC3(CC2)CN(C)CCN3C)ncn1 | -4.93
Cc1cc(C)n(CC2(CNC(=O)C(c3ccccc3F)N(C)C)CC2)n1 (stereo not given) | -5.49
CC(=O)c1cccc(C(=O)N2C[C@@H](CN3CCCCCC3)[C@@H](CO)C2)c1 | -5.31
Cc1ccc2[nH]c(=O)c(CN(C)Cc3cc(C4CC4)[nH]n3)cc2c1 | 11.1
CC(C)c1noc(C2CC(=O)N(CCN(C)C)C2)n1 (stereo not given) | -8.25
c1ccc(CCN2CCN(C3CCOC4(CCOCC4)C3)CC2)cc1 (stereo not given) | -5.08
CC(NC1CCSCC1)c1ccccc1-n1cccn1 (stereo not given) | -11.7
Cc1nc(CCN2CCC(Oc3ccccc3F)CC2)cs1 | 9.73
COc1cccc2c1OCC(CNC(=O)CCn1cnnn1)C2 (stereo not given) | -1.24
CCCn1cc(C(=O)NC(C)c2c(C)nn(CC)c2C)c(C)n1 (stereo not given) | -8.59
CN(Cc1nc(Cc2cccc(C(F)(F)F)c2)no1)C1CCCCC1 | -10.4
CC(C)c1cc(C(=O)NCCN2CCCCC2CO)on1 (stereo not given) | -7
CCc1ccc(-c2cn3c(C(=O)NCC(C)C(=O)NC)csc3n2)cc1 (stereo not given) | -1.36
O=c1c(C(F)(F)F)cccn1Cc1nnc(-c2cccnc2)o1 | -0.729
O=C(NC1CC1)C1CNCCN1C(=O)CCOc1ccccc1 (stereo not given) | -0.757

SMILES | cytotoxicity at 70.5 h [%]
CCN(CC)C(=O)[C@@H]1C[C@H](n2cc(-c3cccc(OC)c3)nn2)CN1 | -3.79
Cc1cccc2c(=O)c(C(=O)N3CCCC4(CN(C)C(=O)O4)C3)c[nH]c12 (stereo not given) | -3.6
Cn1cnc2cc(C(=O)N3CCC(c4ccccc4C(=O)O)C3)cnc21 (stereo not given) | -8.01
OC1(CNc2ccc(-c3nc(C4CC4)no3)cn2)CCCCC1 | 22
CCc1cc(NC2CCN(Cc3ccccc3F)CC2)n2nccc2n1 | -16.6
CN1CCN(Cc2ccccc2Oc2nccc3occc23)CC1 | -1.68
O=C1CC2(CCN(C(=O)c3csc(-c4ccccc4)n3)C2)C(=O)N1 (stereo not given) | -5.85
OC1(CN2CCCCC2)CCN(c2cc(C(F)(F)F)ccn2)C1 (stereo not given) | -22.3
CCc1ncc(C(=O)N(C)Cc2cc(-c3ccncc3)no2)cn1 | 35.7
CCN(Cc1cccc2c1OCO2)CC1CCCO1 (stereo not given) | -6.33
O=C(Nc1ccc(-n2cccn2)cc1)N1CCOCC(O)C1 (stereo not given) | -20.9
CCOc1ccccc1CC(=O)N1CCCC(c2ncc[nH]2)C1 (stereo not given) | -0.431
CC(C)(C)c1cn(C2CCN(C(=O)c3cncnc3)CC2)nn1 | 18
Cc1ccc(C2(CN3CCN(c4ncccn4)CC3)CCNCC2)nc1 | -1.1
Nc1cc(-c2cc(O)cc(C(=O)O)c2)c2cc[nH]c2n1 | -10.3
CCC[C@@H]1CN(C(=O)c2ccccc2-c2ncc[nH]2)C[C@H]1N(C)C | -2.55
CSc1ccc(CCN2CCN([C@H]3CCCC[C@@H]3O)CC2)cc1 | -8.75
CN(C)CCCC(=O)N1C[C@H]2CC[C@@H]1CN(Cc1ccccc1)C2 | -6.09
O=C(NCC(F)(F)F)C(c1cccnc1)N1CCOCC1 (stereo not given) | -5.8
CCn1nc(CC(C)C)cc1C(=O)N1CCCOC(CN2CCCC2)C1 (stereo not given) | -3.36
CN(C)[C@H]1CN(C(=O)CCCc2ccc(F)cc2)C[C@@H]1C1CC1 | -7.35
COc1cc(NCC(c2ccccn2)N2CCOCC2)ncn1 (stereo not given) | -3.18

SMILES | cytotoxicity at 70.5 h [%]
Cc1nc2c(NC(CC(C)(C)C)c3cccnc3)ncnc2o1 (stereo not given) | -10.9
O=C(NCCC1CN(C2CCCC2)CCO1)c1cc(=O)[nH]c(=O)[nH]1 (stereo not given) | -11.6
Cc1ccc(F)cc1CC(=O)N1CC[C@@]2(O)CCNC[C@H]2C1 | -5.81
Cc1ocnc1C(=O)N1CCC(c2nccn2Cc2ccncc2)CC1 | -6.78
Cc1ccc(-c2ccnc(N[C@H]3COC[C@@H]3N3CCCC3)n2)c(C)n1 | -10.9
CC(C)N(C)S(=O)(=O)c1ccc2c(c1)CCN(C(=O)c1cccnn1)C2 | -13.5
Cc1nccnc1N1C[C@H]2CN(C3CCOCC3)C[C@@]2(C(=O)O)C1 | 2.61
CCCOC1CCCN(c2nc(COC)nc3c2cnn3C)C1 (stereo not given) | -19
c1ccc(OCc2noc(CN3CCN(C4CCCC4)CC3)n2)cc1 | 9.68
CC(NS(C)(=O)=O)C(=O)N(C)Cc1cnn(-c2ccc(F)cc2)c1 (stereo not given) | 3.12
C/C(=C\c1ccco1)CN(C)C(C)Cc1cc(C)ccn1 (stereo not given) | -0.46
CC(C)c1nccn1CCCNC(=O)c1ccc(-c2cnn(C)c2)nc1 | -5.24
CCCC(=O)NCC1CCCN(Cc2cc(C)c(C)o2)C1 (stereo not given) | 0.818
Cc1cccc(N2CCC(N3CCC4(CN(C)C(=O)O4)C3)CC2)c1C (stereo not given) | -9.4
CS(=O)(=O)N1CCOC(CNC(=O)c2cccc(C#N)c2)C1 (stereo not given) | 3.98
CSCCC(O)C(=O)N1CCCN(Cc2cccnc2)CC1 (stereo not given) | -9.6
CCn1nc(C)c(C(=O)N2C[C@@H](CN(C)CCOC)[C@@H](CO)C2)c1C | -6.72
CC(C)Cc1nc(CCn2cncn2)n(-c2ccc3c(c2)OCCO3)n1 | -18
CCCN1CCN(c2ccc(-c3nc(C)no3)cn2)CC1 | 13
Cc1nc(CCCNC(=O)[C@H]2CNC[C@@H](C(=O)N3CCCC3)C2)sc1C | -5.47
Cc1cc2nc(C(C)C)cc(NCCc3cccn3C)n2n1 | -8.08
Cc1cc(CN[C@@H](Cc2ccccc2)C(N)=O)c(C)s1 | -14.1
